# Read-outs that look alike come from different tables or passages of the source.
# Test: Solubility in water, buffer pH 4.5 and ethanol (UPLC)
# Format: physicochemical
# Conditions: for solubility at 1 h: thermodynamic from solid
# Method: An excess amount of CUR-2GE (2 mg) was added to 2 mL of three solvents, water, phosphate buffer pH 4.5 and ethanol. The samples were sonicated at 25°C for 1 h and then placed on an orbital shaker at 100 rpm at 25°C for 1 h. The obtained mixture was then centrifuged at 25°C at 14,000 rpm for 10 min [37, 38]. The supernatant was analyzed using UPLC and the solubility of CUR-2GE in each medium was determined. Experiments were performed in triplicate. The solubility category was classified according to USP [39]. The percentage of CUR-2GE in the undissociated form at various pH values was calculated based on the Henderson-Hasselbalch equation [40] (see S1 Appendix).
# S1 Appendix. Experimental procedures
# The solubility category was classified according to USP [1] as very soluble (>1000 mg/mL), freely soluble (100-1000 mg/mL), soluble (33-100 mg/mL), sparingly soluble (10-33 mg/mL), slightly soluble (1-10 mg/mL), very slightly soluble (0.1-1 mg/mL) and practically […]
# The percentage of CUR-2GE in the undissociated form at various pH values were calculated based on Henderson-Hasselbalch using Eq. 1:
# %Undissociated form = 100 - antilog (pH-pKa) x 100 (1)
# Where pH; pH value of the medium for solubilization, pKa; negative logarithm of the dissociation constant (Ka) of CUR-2GE with computed using the Marvin (Product version: 21.8.0) of ChemAxon (Budapest, Hungary) (http://www.chemaxon.com) accessed on June 2021. […]
# [1] = 25°C, <LOQ refers to less than 0.05 μg/mL
smiles,measurement,setting,value
"CCOC(=O)CCCNC(=O)Oc1ccc(/C=C/C(=O)/C=C(O)/C=C/c2ccc(OC(=O)NCCCC(=O)OCC)c(OC)c2)cc1OC [CUR-2GE, Curcumin diethyl γ-aminobutyrate]","Solubility, buffer pH 4.5",[1],<LOQ
same,"Solubility, water",[1],<LOQ
same,solubility at 1 h,"ethanol, organic solvent or mixture, 25°C, read-out: Solubility, ethanol",17.9 ± 1.76 µg/mL
same,USP solubility classification,"in water, buffer pH 4.5 and ethanol, practically insoluble = <0.1 mg/mL",practically insoluble
same,solubility at 1 h,"phosphate buffer pH 4.5, pH 4.5, aqueous buffer, 25°C, <LOQ refers to less than 0.05 μg/mL, read-out: Solubility, buffer pH 4.5",< 0.05 µg/mL
same,solubility at 1 h,"water, 25°C, <LOQ refers to less than 0.05 μg/mL, read-out: Solubility, water",< 0.05 µg/mL
